Laboratory results taken from patent US20130005718A1 (priority 2009, published 2013).
“And” between values parts separate entries of the source, which are not always exact repeats. Equal entries are not always repeated. “Also recorded” adds a separate entry of the source.

How the values were obtained:
[1] = equivalent ionic conditions; cited from earlier work
[2] = system: mice; conditions: i.v. 80-100 mg/kg; cited from earlier work
[3] = in vivo; cited from earlier work
[4] = molecular target: T1, HCN1 channels (Mus musculus, UniProt O88704); assay: Two-electrode voltage clamp (TEVC) of HCN1 channel gating in Xenopus oocytes; assay type: cell-based, murine; conditions: for HCN isoform preference (words): HCN1 versus HCN2, 3 or 4
T1 construct: expressed in transfected cells; host or cells: Xenopus oocytes (cRNA injection)
T1 sequence (O88704 whole entry, canonical isoform): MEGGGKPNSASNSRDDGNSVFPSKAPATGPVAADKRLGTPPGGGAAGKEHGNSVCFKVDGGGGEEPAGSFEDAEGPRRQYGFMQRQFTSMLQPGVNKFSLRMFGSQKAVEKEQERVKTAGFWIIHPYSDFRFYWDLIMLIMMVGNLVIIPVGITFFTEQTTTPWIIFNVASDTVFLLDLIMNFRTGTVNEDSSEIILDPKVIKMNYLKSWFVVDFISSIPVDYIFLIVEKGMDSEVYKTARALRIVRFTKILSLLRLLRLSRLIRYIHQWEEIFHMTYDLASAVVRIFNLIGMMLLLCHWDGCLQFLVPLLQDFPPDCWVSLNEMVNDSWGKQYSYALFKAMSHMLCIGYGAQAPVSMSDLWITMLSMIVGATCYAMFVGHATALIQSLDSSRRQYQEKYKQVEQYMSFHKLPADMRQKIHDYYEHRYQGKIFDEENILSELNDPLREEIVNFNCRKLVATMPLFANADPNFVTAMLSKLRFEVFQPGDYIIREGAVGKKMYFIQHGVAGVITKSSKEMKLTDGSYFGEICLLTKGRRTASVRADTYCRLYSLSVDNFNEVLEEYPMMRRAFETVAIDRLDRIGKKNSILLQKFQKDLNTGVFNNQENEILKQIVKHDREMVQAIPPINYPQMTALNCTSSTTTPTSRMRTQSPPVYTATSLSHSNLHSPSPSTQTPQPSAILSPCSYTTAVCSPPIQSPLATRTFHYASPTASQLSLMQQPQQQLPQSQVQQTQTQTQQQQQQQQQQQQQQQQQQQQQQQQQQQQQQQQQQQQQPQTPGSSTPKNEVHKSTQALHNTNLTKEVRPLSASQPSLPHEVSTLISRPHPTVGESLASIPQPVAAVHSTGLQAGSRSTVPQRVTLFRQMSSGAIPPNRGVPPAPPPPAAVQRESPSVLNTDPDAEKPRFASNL

[5] = Method: Serial dilutions were then dispersed into the aqueous recording solutions maintaining the DMSO concentration at 0.04% (W/V). […] To this end, appropriate masses of 2,6-DTBP and DHβCD that would yield 6 ml of 1% 2,6-DTBP, in combination with 40% DHβCD, were combined in a Teflon® capped borosilicate vial and heated to 60° C. in a water bath. This temperature is above the melting point of 2,6-DTBP (36° C. (Lorenc et al., 2003) but below that of DHβCD (>200° C. (Loftsson et al., 1996) and is compatible with stability of both reagents (Lorenc et al., 2003; Loftsson et al., 1996 and CAS documentation). After 15 minutes, the molten 2,6-DTBP was intimately mixed with the DHβCD by vigorous vortexing, 200 μl of 60° C. DI H2O added and, following additional vortexing, the vial returned to the water bath for 15-30 minutes. Following addition of 3 more 200 μl aliquots of deionized water (DI H2O), with corresponding incubation and vortexing, the sample was left at 60° C. overnight. The resulting colorless viscous gel was slowly diluted by addition of the required volume of DI H2O adding no more than 200 μl at a time with 15-30 minutes incubation at 60° C. and vortexing after each addition.
The injection port and FID were at 280° C. while the column temperature was 210° C. The split ratio was 2:1 while the column flow was 6.96 ml/min with helium (linear velocity 65 cm/s).
Samples and standards were prepared as follows. To 200 μl of whole blood (drawn following injection of DHβCD or 2,6-DTBP solubilized in DHβCD), 200 μl of chloroform containing 100 nM thymol (Sigma) as internal standard and 2 μl of DMSO were added. Following mixing (vortex for 20 seconds followed by 30 minutes on a rotator) and subsequent centrifugation (5000×g for 10 minutes at 10° C.), the chloroform phase was transferred into a glass gas chromatography vial and washed with an equal volume of 0.5 M NaOH. […] DHβCD was added to the DMSO-solubilized 2,6-DTBP sample and DMSO was added to the DHβCD-solubilized 2,6-DTBP sample so that the final concentrations of DHβCD and DMSO were equivalent. […]

[6] = system: PNL-induced thermal hyperalgesia; assay: Hind paw withdrawal latency (HPWL) to heat source after PNL; assay type: in vivo, C57 Black/6J mice; conditions: i.p., 15% heat stimulus
[7] = system: mice; assay: Acute toxicity of 2,6-DTBP (behavior and survival); assay type: in vivo
Method: (§1) To examine 2,6-DTBP bioavailability, 32 mice received dihydroxy-β-cyclodextrin (DHβCD) solubilized 2,6-DTBP (see below), DHβCD alone or saline by intraperitoneal (i.p.) injection with a dosing schedule as per behavioral testing (see below). 10-60 minutes after receipt of the appropriate final dose, mice were anesthetized with 2.5-3% isoflurane then exsanguinated by venous puncture. Blood concentration of 2,6-DTBP was determined by gas chromatography (see below). To consider toxicity of a high acute therapeutic dose of 2,6-DTBP, some animals received a single bolus of 80 mg/kg. To consider toxicity of an acute hyper-therapeutic dose of 2,6-DTBP, all animals that received three 40 mg/kg therapeutic doses during animal behavior experiments received a 120 mg/kg bolus immediately after the 180 minutes of behavioral testing window, thereby raising the cumulative dose to 240 mg/kg. The general condition of all of these animals was followed by qualitative observation of behavior (grooming and exploration) and survival. All animals were sacrificed within 7 days after receipt of a 2,6-DTBP/DHβCD injection.

[8] = system: PNL-induced mechanical allodynia and hyperalgesia; assay: Von Frey fiber test after partial sciatic nerve ligation (PNL); assay type: in vivo, C57 Black/6J mice
[9] = assay type: in vivo, mice
Method: Samples and standards were prepared as follows.
For the standard calibration curve, aliquots of 2,6-DTBP acutely solubilized in DMSO were added to 200 μl of chloroform plus the thymol internal standard (total DMSO addition was 2 μl in all cases). 200 μl of H2O were then added and the samples were processed as described above. In all cases, 2 μl of the chloroform phase was injected for analysis.
as §1

[10] = variously reported; cited from earlier work
[11] = listed as 2,6-di-tert-butylphenol

## CCCCC/C=C\C/C=C\C/C=C\C/C=C\CCCC(=O)O [arachidonic acid]
[1]
  critical micelle concentration: about 100 μM

## CC(C)(C)c1cccc(C(C)(C)C)c1O [2,6-DTBP, 2,6-di-tert-butylphenol]
[2]
  tolerability of acute intravenous exposure: well tolerated
[3]
  anesthetic activity: total absence of anesthetic efficacy
[4]
  HCN1 antagonism: strongest potency and highest efficacy of the four derivatives
  HCN isoform preference (words): retains this selectivity profile; also recorded: retains a propofol-like selective efficacy against HCN1 channels
[4]; 10 μM, n=6
  mean V1/2 of HCN1 activation: −88.3 mV
  mean slope of HCN1 activation: 9.6 mV
[4]; 10 μM, single cell
  V1/2 of HCN1 activation (Boltzmann fit, cell shown in FIG. 3A): −90.8 mV
  slope of HCN1 activation (Boltzmann fit, cell shown in FIG. 3A): 9.7 mV
[4]; 20 μM, n=6, difference to control not significant
  post incubation maximal current relative to pre incubation current: 108%
[4]; 20 μM, solubilized in DHβCD, n=6
  HCN1 ΔV1/2 after 20-minute incubation: −27.7 mV
[4]; 20 μM, solubilized in DMSO, n=6
  HCN1 ΔV1/2 after 20-minute incubation: −31.9 mV
[4]; 20 min incubation, Xenopus oocytes, TEVC, read-out: EC50 for hyperpolarization of V1/2 of HCN1 gating (Hill fit)
  EC50: 2300 nM and ~2300 nM
[4]; [11]
  HCN isoform preference (words): preferentially inhibit HCN1 with little efficacy against HCN2, 3 or 4 channels
[4]; Hill fit of dose-response
  apparent stoichiometry h (Hill coefficient): 1.4
  maximal efficacy ΔV1/2 of HCN1 gating: −32 mV
[5]
  concentration solubilized in carrier solution: 1 % (W/V)
  solubilization in intralipid emulsion: unsuccessful
  storage stability of the solution: no phase separation or derivative precipitation
[6]
  thermal hyperalgesia, ipsilateral HPWL (words): ameliorates the behavioral consequences of PNL-induced hyperalgesia; also recorded: selectively ameliorates PNL-induced thermal hyperalgesia
  thermal nociception, contralateral HPWL: without significantly altering nociceptive behavior
[6]; [11]
  thermal hyperalgesia, ipsilateral HPWL (words): significantly relieve the neuropathic behavior
[7]; 80 mg/kg i.p., four mice, seven day observation
  tolerability of single bolus dose: all mice tolerated this dose well
[7]; 120 mg/kg bolus after three 40 mg/kg doses, cumulative 240 mg/kg i.p.
  tolerability of final bolus: not well tolerated
[7]; acute i.p. dose
  LD75: ~240 mg/kg
[7]; cumulative 240 mg/kg i.p.
  window in which remaining animals died: 14 to 18 h
[7]; i.p.
  therapeutic index: 3 to 5
[8]; i.p. cumulative dosing, post-PNL mice
  mechanical hyperalgesia/allodynia in ipsilateral paw: ameliorates the behavioral consequences of PNL-induced hyperalgesia; also recorded: selectively suppresses PNL-induced mechanical allodynia and hyperalgesia
[8]; threshold set at PW of 0.1
  mechanical threshold, Logit transformation (allodynia, words): restore selectively the mechanical threshold to that observed in the uninjured paw
[9]; 80 mg/kg i.p. in DHβCD
  whole blood concentration indicated from the chromatogram shown: 3.6 µM
[9]; 80 mg/kg i.p. in DHβCD, n=6
  total concentration in whole blood (mean): 10.6 µM
[9]; analgesic dose of 40-120 mg/kg i.p.
  estimated free serum concentration: 0.2 to 0.6 µM
[9]; from total blood concentration after 80 mg/kg i.p.
  expected free concentration: 0.1 to 0.5 µM
[10]
  aqueous solubility limit: 20 to 200 µM
